# Laboratory results taken from PubChem BioAssay AID328 (DTP/NCI, 2004).
# Values joined by “and” are separate entries in the source; they are usually repeats but may differ in a detail not shown here. Equal values may be shown once. Inconclusive results and toxic doses are left out.
# System: BDF1 mice, P388 leukemia ip, median survival T/C
# Experiment: NCI In Vivo Anticancer Drug Screen. Data for tumor model P388 Leukemia (intraperitoneal) in B6D2F1 (BDF1) mice
# Settings: endpoint: median survival time, higher = longer survival
# Protocol: The antitumor activity of compounds was measured in mice bearing transplantable tumors. Survival or tumor size were measured and the results are expressed as the measurement made in the treated group (T) divided by the measurement made in the vehicle treated control group (C). The tumor model used in this assay is P388 Leukemia (intraperitoneal) in B6D2F1 (BDF1) mice
# [1] = dose: 25.0 mg/kg/injection, schedule: Q01DX009 (ip), vehicle: Klucel (hydroxypropylcellulose) (HPC)
# [2] = dose: 100.0 mg/kg/injection, schedule: Q04DX003 (ip), vehicle: Klucel (hydroxypropylcellulose) (HPC)
# [3] = dose: 100.0 mg/kg/injection, schedule: Q04DX003 (ip), vehicle: saline with Tween-80
# [4] = dose: 200.0 mg/kg/injection, schedule: Q04DX003 (ip), vehicle: saline with Tween-80
# [5] = dose: 400.0 mg/kg/injection, schedule: Q04DX003 (ip), vehicle: saline with Tween-80
# [6] = dose: 25.0 mg/kg/injection, schedule: Q01DX009 (ip), vehicle: saline
# [7] = dose: 50.0 mg/kg/injection, schedule: Q01DX009 (ip), vehicle: saline
# [8] = dose: 50.0 mg/kg/injection, schedule: Q04DX003 (ip), vehicle: saline
# [9] = dose: 100.0 mg/kg/injection, schedule: Q04DX003 (ip), vehicle: saline
smiles,measurement,setting,value
CC(=O)O[C@H]1CC[C@H]2[C@@H]3CC[C@H]4C[C@@H]5[C@H](C[C@]4(C)[C@H]3CC[C@]12C)C5(F)F,T/C,"dose: 3.12 mg/kg/injection, schedule: Q04DX003 (ip), vehicle: Klucel (hydroxypropylcellulose) (HPC)",100 % of control
same,T/C,"dose: 6.25 mg/kg/injection, schedule: Q01DX009 (ip), vehicle: Klucel (hydroxypropylcellulose) (HPC)",88 % of control
same,T/C,"dose: 6.25 mg/kg/injection, schedule: Q04DX003 (ip), vehicle: Klucel (hydroxypropylcellulose) (HPC)",100 % of control
same,T/C,"dose: 12.5 mg/kg/injection, schedule: Q01DX009 (ip), vehicle: Klucel (hydroxypropylcellulose) (HPC)",92 % of control
same,T/C,"dose: 12.5 mg/kg/injection, schedule: Q04DX003 (ip), vehicle: Klucel (hydroxypropylcellulose) (HPC)",100 % of control
same,T/C,[1],100 % of control
same,T/C,[2],100 % of control
CC[N+](CC)(CC)CCCCC[N+](CC)(CC)CC,T/C,"dose: 6.25 mg/kg/injection, schedule: Q04DX003 (ip), vehicle: water",104 % of control
same,T/C,"dose: 12.5 mg/kg/injection, schedule: Q04DX003 (ip), vehicle: water",114 % of control
same,T/C,"dose: 25.0 mg/kg/injection, schedule: Q04DX003 (ip), vehicle: water",100 % of control and 114 % of control
CC(=O)CC(=O)Nc1ccc(N=Nc2ccccc2)cc1,T/C,[3],109 % of control
same,T/C,[4],109 % of control
same,T/C,[5],119 % of control
O=[N+]([O-])c1cc([N+](=O)[O-])c2nn(-c3ccccc3)[n+]([O-])c2c1,T/C,[1],100 % of control
same,T/C,"dose: 50.0 mg/kg/injection, schedule: Q01DX009 (ip), vehicle: Klucel (hydroxypropylcellulose) (HPC)",100 % of control
same,T/C,"dose: 100.0 mg/kg/injection, schedule: Q01DX009 (ip), vehicle: Klucel (hydroxypropylcellulose) (HPC)",90 % of control
same,T/C,[2],95 % of control
same,T/C,"dose: 200.0 mg/kg/injection, schedule: Q04DX003 (ip), vehicle: Klucel (hydroxypropylcellulose) (HPC)",100 % of control
same,T/C,"dose: 400.0 mg/kg/injection, schedule: Q04DX003 (ip), vehicle: Klucel (hydroxypropylcellulose) (HPC)",100 % of control
CC(C)CCC[C@@H](C)[C@H]1CC[C@H]2[C@@H]3CC=C4C[C@@H](OC(=O)Cc5ccc(N(CCCl)CCCl)cc5)CC[C@]4(C)[C@H]3CC[C@]12C,T/C,"dose: 6.25 mg/kg/injection, schedule: Q01DX010 (sc), vehicle: steriod suspending solution",87 % of control
same,T/C,"dose: 12.5 mg/kg/injection, schedule: Q01DX010 (sc), vehicle: steriod suspending solution",91 % of control
same,T/C,"dose: 25.0 mg/kg/injection, schedule: Q01DX010 (sc), vehicle: steriod suspending solution",91 % of control
same,T/C,"dose: 50.0 mg/kg/injection, schedule: Q01DX010 (oral), vehicle: steriod suspending solution",104 % of control
same,T/C,"dose: 50.0 mg/kg/injection, schedule: Q01DX010 (sc), vehicle: steriod suspending solution",92 % of control
same,T/C,"dose: 100.0 mg/kg/injection, schedule: Q01DX010 (oral), vehicle: steriod suspending solution",118 % of control
same,T/C,"dose: 100.0 mg/kg/injection, schedule: Q01DX010 (sc), vehicle: steriod suspending solution",111 % of control
same,T/C,"dose: 200.0 mg/kg/injection, schedule: Q01DX010 (sc), vehicle: steriod suspending solution",107 % of control
same,T/C,"dose: 400.0 mg/kg/injection, schedule: Q01DX010 (oral), vehicle: steriod suspending solution",172 % of control
same,T/C,"dose: 400.0 mg/kg/injection, schedule: Q01DX010 (sc), vehicle: steriod suspending solution",100 % of control
same,T/C,"dose: 800.0 mg/kg/injection, schedule: Q01DX010 (oral), vehicle: steriod suspending solution",118 % of control
COC(=O)CCC1(c2ccccc2)CCCC1=O (stereo not given),T/C,"dose: 12.5 mg/kg/injection, schedule: Q01DX009 (ip), vehicle: water",103 % of control
same,T/C,"dose: 25.0 mg/kg/injection, schedule: Q01DX009 (ip), vehicle: water",92 % of control
same,T/C,"dose: 100.0 mg/kg/injection, schedule: Q01DX009 (ip), vehicle: water",94 % of control
same,T/C,"dose: 200.0 mg/kg/injection, schedule: Q04DX003 (ip), vehicle: water",96 % of control
same,T/C,"dose: 300.0 mg/kg/injection, schedule: Q04DX003 (ip), vehicle: water",100 % of control
same,T/C,"dose: 400.0 mg/kg/injection, schedule: Q04DX003 (ip), vehicle: water",91 % of control
CCCCN(C)c1ncnc2[nH]ncc12,T/C,[6],100 % of control
same,T/C,"dose: 25.0 mg/kg/injection, schedule: Q04DX003 (ip), vehicle: saline",95 % of control
same,T/C,[7],109 % of control
same,T/C,[8],95 % of control
same,T/C,[9],91 % of control
C=CCNc1ncnc2c1cnn2C,T/C,[6],95 % of control and 104 % of control
same,T/C,[7],109 % of control
same,T/C,[8],118 % of control
same,T/C,"dose: 100.0 mg/kg/injection, schedule: Q01DX009 (ip), vehicle: saline",104 % of control
same,T/C,[9],109 % of control
same,T/C,"dose: 200.0 mg/kg/injection, schedule: Q04DX003 (ip), vehicle: saline",90 % of control
NC(=O)c1ccc(NC(=O)/C=C/C(=O)Nc2ccc(C(N)=O)cn2)nc1,T/C,"dose: 0.08 mg/kg/injection, schedule: Q01DX009 (ip), vehicle: saline",115 % of control
same,T/C,"dose: 0.17 mg/kg/injection, schedule: Q01DX009 (ip), vehicle: saline",120 % of control
same,T/C,"dose: 0.35 mg/kg/injection, schedule: Q01DX009 (ip), vehicle: saline",105 % of control
same,T/C,"dose: 0.7 mg/kg/injection, schedule: Q01DX009 (ip), vehicle: saline",103 % of control
same,T/C,"dose: 1.4 mg/kg/injection, schedule: Q01DX009 (ip), vehicle: saline",107 % of control
same,T/C,"dose: 1.65 mg/kg/injection, schedule: Q01DX009 (ip), vehicle: saline with Tween-80",113 % of control
same,T/C,"dose: 2.5 mg/kg/injection, schedule: Q01DX009 (ip), vehicle: saline with Tween-80",117 % of control
same,T/C,"dose: 3.75 mg/kg/injection, schedule: Q01DX009 (ip), vehicle: saline with Tween-80",94 % of control
same,T/C,"dose: 4.5 mg/kg/injection, schedule: Q04DX003 (ip), vehicle: saline",86 % of control
same,T/C,"dose: 5.62 mg/kg/injection, schedule: Q01DX009 (ip), vehicle: saline",104 % of control
same,T/C,"dose: 9.0 mg/kg/injection, schedule: Q04DX003 (ip), vehicle: saline",108 % of control
same,T/C,"dose: 18.0 mg/kg/injection, schedule: Q04DX003 (ip), vehicle: saline",100 % of control
same,T/C,"dose: 26.0 mg/kg/injection, schedule: Q04DX003 (ip), vehicle: saline",112 % of control
same,T/C,"dose: 40.0 mg/kg/injection, schedule: Q04DX003 (ip), vehicle: saline",108 % of control
CN(C)c1ccc(C=Nc2ccc3c(c2)/C(=C/c2ccc(N(C)C)cc2)c2ccccc2-3)cc1,T/C,"dose: 25.0 mg/kg/injection, schedule: Q04DX003 (ip), vehicle: saline with Tween-80",116 % of control
same,T/C,"dose: 50.0 mg/kg/injection, schedule: Q04DX003 (ip), vehicle: saline with Tween-80",122 % of control
same,T/C,[3],116 % of control
same,T/C,[4],121 % of control
CCOCc1ccc(OCc2ccccc2)cc1,T/C,"dose: 50.0 mg/kg/injection, schedule: Q01DX009 (ip), vehicle: saline with Tween-80",94 % of control
same,T/C,"dose: 100.0 mg/kg/injection, schedule: Q01DX009 (ip), vehicle: saline with Tween-80",108 % of control
same,T/C,"dose: 200.0 mg/kg/injection, schedule: Q01DX009 (ip), vehicle: saline with Tween-80",119 % of control
CCOC(=O)CCC(NC(=O)c1cc(Cl)c(N(C)S(=O)(=O)c2ccc(C)cc2)cc1Cl)C(=O)OCC (stereo not given),T/C,"dose: 25.0 mg/kg/injection, schedule: Q01DX001 (ip), vehicle: saline sonified",109 % of control
same,T/C,"dose: 50.0 mg/kg/injection, schedule: Q01DX001 (ip), vehicle: saline sonified",104 % of control
same,T/C,"dose: 100.0 mg/kg/injection, schedule: Q01DX001 (ip), vehicle: saline sonified",104 % of control
CC(=O)[C@H]1CC[C@H]2[C@@H]3C[C@H](C)C4=CC(=O)CC[C@]4(C)[C@H]3C(=O)C[C@]12C,T/C,[3],103 % of control
same,T/C,[4],107 % of control
same,T/C,[5],103 % of control
COC1CCC(C)(C=O)C(C#N)(C#N)C1(C#N)C#N (stereo not given),T/C,"dose: 12.5 mg/kg/injection, schedule: Q01DX001 (ip), vehicle: saline with Tween-80",98 % of control
same,T/C,"dose: 25.0 mg/kg/injection, schedule: Q01DX001 (ip), vehicle: saline with Tween-80",114 % of control
same,T/C,"dose: 50.0 mg/kg/injection, schedule: Q01DX001 (ip), vehicle: saline with Tween-80",109 % of control
CN(C)c1ccc(/C=C/c2ccc3ccccc3[n+]2C)cc1,T/C,"dose: 12.5 mg/kg/injection, schedule: Q01DX009 (ip), vehicle: saline",88 % of control
NC(=S)N/N=C/c1ccc(N)cn1,T/C,"dose: 3.13 mg/kg/injection, schedule: Q01DX009 (ip), vehicle: saline with Tween-80",160 % of control
same,T/C,"dose: 6.25 mg/kg/injection, schedule: Q01DX009 (ip), vehicle: saline with Tween-80",172 % of control and 211 % of control
